The assay deals with IFV A/PR/8/34. Description: cytopathic effect (CPE) antiviral test in MDCK cells, IFV A/PR/8/34. Particulars: unidentified influenza virus, PR/8, MDCK, 120 h, read-out: EC50(IFV A/PR/8/34). Format: cell-based, influenza virus. For orientation: Damage to the host cells serves as the signal in cytopathic effect assays.
Take `Cc1c(-c2ccc3oc(-c4ccnc(C(=O)N5CCN(C(c6ccccc6)c6nnn(C(F)F)n6)CC5)c4)nc3c2)cnn1C` (racemic) [Compound 154, (R/S)-(4-((2-(difluoromethyl)-2H-tetrazol-5-yl)(phenyl)methyl)piperazin-1-yl)(4-(5-(1,5-dimethyl-1H-pyrazol-4-yl)benzo[d]oxazol-2-yl)pyridin-2-yl)methanone]: the EC50 was found to be 5 nM.

For `[2H]C([2H])([2H])C(C(=O)Nc1ccc2oc(-c3ccnc(C(=O)N4CCC(C(c5ccccc5)n5nnc(C(F)F)n5)CC4)c3)nc2c1)C([2H])([2H])[2H]` (racemic) [Compound 163, 3,3,3-tideuterio-N-[2-[2-[4-[(R/S)-[5-(difluoromethyl)tetrazol-2-yl]-phenyl-methyl]piperidine-1-carbonyl]-4-pyridyl]-1,3-benzoxazol-5-yl]-2-(trideuteriomethyl)propanamide], the EC50 came to 8 nM.

Consider `[2H]C([2H])([2H])c1nnn(C(c2ccccc2)C2CCN(C(=O)c3cc(-c4nc5cc(NC(=O)[C@@H]6C[C@@H]6F)ccc5o4)ccn3)CC2)n1` (mixture of isomers) [Compound 201, (1S,2S)-2-fluoro-N-(2-(2-(4-((R/S)-(5-(methyl-d3)-2H-tetrazol-2-yl)(phenyl)methyl)piperidine-1-carbonyl)pyridin-4-yl)benzo[d]oxazol-5-yl)cyclopropane-1-carboxamide], for which the EC50 was 3.6 nM. The same measure for `CNCc1nnn(C(c2ccccc2)C2CCN(C(=O)c3cc(-c4nc5cc(NC(=O)[C@@H]6C[C@@H]6F)ccc5o4)ccn3)CC2)n1` (mixture of isomers) [Compound 211, (1S,2S)-2-fluoro-N-(2-(2-(4-((R/S)-(5-((methylamino)methyl)-2H-tetrazol-2-yl)(phenyl)methyl)piperidine-1-carbonyl)pyridin-4-yl)benzo[d]oxazol-5-yl)cyclopropane-1-carboxamide]: 0.3 nM; for `O=C(Nc1ccc2oc(-c3ccnc(C(=O)N4CCN(C(c5ccccc5)c5nnn(CCO)n5)CC4)c3)nc2c1)[C@@H]1C[C@@H]1F` (mixture of isomers) [Compound 212, (1S,2S)-2-fluoro-N-(2-(2-(4-((R/S)-(2-(2-hydroxyethyl)-2H-tetrazol-5-yl)(phenyl)methyl)piperazine-1-carbonyl)pyridin-4-yl)benzo[d]oxazol-5-yl)cyclopropane-1-carboxamide]: 2.2 nM. Turning to `O=C(c1cc(-c2nc3cc(-c4cnn(C5COC5)c4)ccc3o2)ccn1)N1CCN(C(c2ccccc2)c2nnn(C(F)F)n2)CC1` (racemic) [Compound 151, (R/S)-(4-((2-(difluoromethyl)-2H-tetrazol-5-yl)(phenyl)methyl)piperazin-1-yl)(4-(5-(1-(oxetan-3-yl)-1H-pyrazol-4-yl)benzo[d]oxazol-2-yl)pyridin-2-yl)methanone], the EC50 was found to be 38 nM. On to `Cn1cc(-c2ccc3oc(-c4ccnc(C(=O)N5CCN(C(c6ccccc6)c6nnn(C(F)F)n6)CC5)c4)nc3c2)nn1` (racemic) [Compound 130, (R/S)-(4-((2-(difluoromethyl)-2H-tetrazol-5-yl)(phenyl)methyl)piperazin-1-yl)(4-(5-(1-methyl-1H-1,2,3-triazol-4-yl)benzo[d]oxazol-2-yl)pyridin-2-yl)methanone], for which the EC50 turned out to be 29 nM. For the compound `NCc1nnn(C(c2ccccc2)C2CCN(C(=O)c3cc(-c4nc5cc(NC(=O)[C@@H]6C[C@@H]6F)ccc5o4)ccn3)CC2)n1` (mixture of isomers) [Compound 210, (1S,2S)—N-(2-(2-(4-((R/S)-(5-(aminomethyl)-2H-tetrazol-2-yl)(phenyl)methyl)piperidine-1-carbonyl)pyridin-4-yl)benzo[d]oxazol-5-yl)-2-fluorocyclopropane-1-carboxamide], the EC50 came out at 0.8 nM. For `O=C(Nc1ccc2oc(-c3ccnc(C(=O)N4CCC(C(c5ccccc5)n5nnc(CO)n5)CC4)c3)nc2c1)[C@@H]1C[C@@H]1F` (mixture of isomers) [Compound 197, (1S,2S)-2-fluoro-N-(2-(2-(4-((R/S)-(5-(hydroxymethyl)-2H-tetrazol-2-yl)(phenyl)methyl)piperidine-1-carbonyl)pyridin-4-yl)benzo[d]oxazol-5-yl)cyclopropane-1-carboxamide], the EC50 is 0.9 nM. `Cc1nnn(C(c2ccccc2)C2CCN(C(=O)c3cc(-c4nc5cc(-c6cnsc6)ccc5o4)ccn3)CC2)n1` (racemic) [Compound 140, (R/S)-(4-(5-(isothiazol-4-yl)benzo[d]oxazol-2-yl)pyridin-2-yl)(4-((5-methyl-2H-tetrazol-2-yl)(phenyl)methyl)piperidin-1-yl)methanone]: the EC50 was 4 nM.

With `Cn1cc(-c2ccc3oc(-c4ccnc(C(=O)N5CCN(C(c6ccccc6)c6nnn(C(F)F)n6)CC5)c4)cc3c2)cn1` (racemic) [Compound 165, (R/S)-(4-((2-(difluoromethyl)-2H-tetrazol-5-yl)(phenyl)methyl)piperazin-1-yl)(4-(5-(1-methyl-1H-pyrazol-4-yl)benzofuran-2-yl)pyridin-2-yl)methanone], the EC50 amounted to 10 nM. The same measure for `CCn1cc(-c2ccc3oc(-c4ccnc(C(=O)N5CCN(C(c6ccccc6)c6nnn(C(F)F)n6)CC5)c4)nc3c2)cn1` (racemic) [Compound 127, (R/S)-(4-((2-(difluoromethyl)-2H-tetrazol-5-yl)(phenyl)methyl)piperazin-1-yl)(4-(5-(1-ethyl-1H-pyrazol-4-yl)benzo[d]oxazol-2-yl)pyridin-2-yl)methanone]: 4 nM; for `Cc1nnn(C(c2ccccc2)C2CCN(C(=O)c3cc(-c4nc5cc(NC(=O)[C@@H]6C[C@H]6F)ccc5o4)ccn3)CC2)n1` (mixture of isomers) [Compound 190, (1S,2R)-2-fluoro-N-(2-(2-(4-((R/S)-(5-methyl-2H-tetrazol-2-yl)(phenyl)methyl)piperidine-1-carbonyl)pyridin-4-yl)benzo[d]oxazol-5-yl)cyclopropane-1-carboxamide]: 11 nM. For the compound `O=C(c1cc(-c2nc3cc(-c4cn(C(F)F)cn4)ccc3o2)ccn1)N1CCC(C(c2ccccc2)n2nnc(CO)n2)CC1` (racemic) [Compound 207, (R/S)-(4-(5-(1-(difluoromethyl)-1H-imidazol-4-yl)benzo[d]oxazol-2-yl)pyridin-2-yl)(4-((5-(hydroxymethyl)-2H-tetrazol-2-yl)(phenyl)methyl)piperidin-1-yl)methanone], the EC50 is 1.3 nM. For `Cc1nnn(C(c2ccccc2)C2CC3CCC(C2)N3C(=O)c2cc(-c3nc4cc(NC(=O)[C@@H]5C[C@@H]5F)ccc4o3)ccn2)n1` (mixture of isomers) [Compound 208, (1S,2S)-2-fluoro-N-(2-(2-(3-((R/S)-(5-methyl-2H-tetrazol-2-yl)(phenyl)methyl)-8-azabicyclo[3.2.1]octane-8-carbonyl)pyridin-4-yl)benzo[d]oxazol-5-yl)cyclopropanecarboxamide], the EC50 was determined as 6.9 nM. As for `Cc1n[nH]c(C)c1-c1ccc2oc(-c3ccnc(C(=O)N4CCN(C(c5ccccc5)c5nnn(C(F)F)n5)CC4)c3)nc2c1` (racemic) [Compound 156, (R/S)-(4-((2-(difluoromethyl)-2H-tetrazol-5-yl)(phenyl)methyl)piperazin-1-yl)(4-(5-(3,5-dimethyl-1H-pyrazol-4-yl)benzo[d]oxazol-2-yl)pyridin-2-yl)methanone], the EC50 stood at 7 nM.

In the case of `Cc1nnn(C(c2ccccc2)C2CCN(C(=O)c3nccc(-c4nc5cc(NC(=O)[C@@H]6C[C@@H]6F)ccc5o4)c3F)CC2)n1` (mixture of isomers) [Compound 219, (1S,2S)-2-fluoro-N-(2-(3-fluoro-2-(4-((R/S)-(5-methyl-2H-tetrazol-2-yl)(phenyl)methyl)piperidine-1-carbonyl)pyridin-4-yl)benzo[d]oxazol-5-yl)cyclopropanecarboxamide], the EC50 was 1.9 nM.

With `COCn1nnc(C(c2ccccc2)N2CCN(C(=O)c3cc(-c4nc5cc(NC(=O)[C@@H]6C[C@@H]6F)ccc5o4)ccn3)CC2)n1` (mixture of isomers) [Compound 214, (1S,2S)-2-fluoro-N-(2-(2-(4-((R/S)(2-(methoxymethyl)-2H-tetrazol-5-yl)(phenyl)methyl)piperazine-1-carbonyl)pyridin-4-yl)benzo[d]oxazol-5-yl)cyclopropane-1-carboxamide], the EC50 came out at 1.9 nM. On to `CC(C)(F)C(=O)Nc1ccc2oc(-c3ccnc(C(=O)N4CCN(C(c5ccccc5)c5nnn(C(F)F)n5)CC4)c3)cc2c1` (racemic) [Compound 141, (R/S)—N-(2-(2-(4-((2-(difluoromethyl)-2H-tetrazol-5-yl)(phenyl)methyl)piperazine-1-carbonyl)pyridin-4-yl)benzofuran-5-yl)-2-fluoro-2-methylpropanamide], for which the EC50 amounted to 16 nM. Take `Cc1ncc(-c2ccc3oc(-c4ccnc(C(=O)N5CCN(C(c6ccccc6)c6nnn(C(F)F)n6)CC5)c4)nc3c2)n1C` (racemic) [Compound 162, (R/S)-(4-((2-(difluoromethyl)-2H-tetrazol-5-yl)(phenyl)methyl)piperazin-1-yl)(4-(5-(1,2-dimethyl-1H-imidazol-5-yl)benzo[d]oxazol-2-yl)pyridin-2-yl)methanone]: the EC50 stood at 3 nM.

On to `Cc1nnn(C(c2ccccc2)C2CCN(C(=O)c3cc(-c4nc5cc(-c6ccn(C)n6)ccc5o4)ccn3)CC2)n1` (racemic) [Compound 183, (R/S)-(4-(5-(1-methyl-1H-pyrazol-3-yl)benzo[d]oxazol-2-yl)pyridin-2-yl)(4-((5-methyl-2H-tetrazol-2-yl)(phenyl)methyl)piperidin-1-yl)methanone], for which the EC50 is 18 nM.

As to `O=C(Nc1ccc2oc(-c3ccnc(C(=O)N4CCC(C(c5ccccc5)c5nnn(C(F)F)n5)CC4)c3)nc2c1)[C@@H]1C[C@@H]1F` (mixture of isomers) [Compound 168, (1S,2S)—N-(2-(2-(4-((R/S)-(2-(difluoromethyl)-2H-tetrazol-5-yl)(phenyl)methyl)piperidine-1-carbonyl)pyridin-4-yl)benzo[d]oxazol-5-yl)-2-fluorocyclopropane-1-carboxamide], the EC50 stood at 2 nM.

These data come from patent US20230079045A1 (priority 2019, published 2023).
